# From ChEMBL document CHEMBL3885861, “Open TG-GATES”
# Species: Rattus norvegicus
# Test: Open TG-GATES - Regimen: Daily Repeat
# Type: toxicity, organism-based, Sprague-Dawley
# Parameters: regimen Daily Repeat, gender Male, age 6 weeks
# Details: in vivo, po, 100 mg/kg, […], route gavage, dose level Low; for KIDNEY_L / KIDNEY_R / KIDNEY_TOTAL: tissue Kidney; for LIVER: tissue Liver; for A/G / ALP / ALT / AST / BUN / CRE / Ca / Cl / DBIL / GLC / IP / K / LDH / Na / PL / RALB / TBIL / TC / TG / TP / gamma-GTP: tissue Plasma
structure (smiles),measurement,setting,value
O=C(O)c1cc(/N=N/c2ccc(S(=O)(=O)Nc3ccccn3)cc2)ccc1O [SULFASALAZINE],Lym,"tissue Blood, time 28 day",81.2%
same,MCH,"tissue Blood, time 28 day",19.8 pg
same,MCHC,"tissue Blood, time 28 day",35.6%
same,MCV,"tissue Blood, time 28 day",55.6 fL
same,Mono,"tissue Blood, time 28 day",2.4%
same,Neu,"tissue Blood, time 28 day",14.6%
same,PT,"tissue Blood, time 28 day",12.6 s
same,Plat,"tissue Blood, time 28 day",105.8 x10_4/uL
same,RBC,"tissue Blood, time 28 day",764.8 x10_4/ul
same,Ret,"tissue Blood, time 28 day",3.2%
same,WBC,"tissue Blood, time 28 day",113.7 x10_2/uL
same,KIDNEY_L,time 7 day,1.1 g
same,KIDNEY_R,time 7 day,1.1 g
same,KIDNEY_TOTAL,time 7 day,2.2 g
same,KIDNEY_L,time 14 day,1.2 g
same,KIDNEY_R,time 14 day,1.2 g
same,KIDNEY_TOTAL,time 14 day,2.3 g
same,KIDNEY_L,time 28 day,1.4 g
same,KIDNEY_R,time 28 day,1.4 g
same,KIDNEY_TOTAL,time 28 day,2.7 g
same,LIVER,time 7 day,11.9 g
same,LIVER,time 14 day,13 g
same,LIVER,time 28 day,15 g
same,A/G,time 7 day,1.6
same,ALP,time 7 day,780.6 IU/L
same,ALT,time 7 day,31.8 IU/L
same,AST,time 7 day,63.8 IU/L
same,BUN,time 7 day,16.4 mg/dL
same,CRE,time 7 day,0.4 mg/dL
same,Ca,time 7 day,10.6 mg/dL
same,Cl,time 7 day,103.4 meq/L
same,DBIL,time 7 day,0.074 mg/dL
same,GLC,time 7 day,232 mg/dL
same,IP,time 7 day,7.2 mg/dL
same,K,time 7 day,3.7 meq/L
same,LDH,time 7 day,217.4 IU/L
same,Na,time 7 day,140.6 meq/L
same,PL,time 7 day,149.6 mg/dL
same,RALB,time 7 day,3.5 g/dL
same,TBIL,time 7 day,0.1 mg/dL
same,TC,time 7 day,72.8 mg/dL
same,TG,time 7 day,71 mg/dL
same,TP,time 7 day,5.7 g/dL
same,gamma-GTP,time 7 day,1.4 IU/L
same,A/G,time 14 day,1.5
same,ALP,time 14 day,842.8 IU/L
same,ALT,time 14 day,34 IU/L
same,AST,time 14 day,65.6 IU/L
same,BUN,time 14 day,16.8 mg/dL
same,CRE,time 14 day,0.5 mg/dL
same,Ca,time 14 day,10.5 mg/dL
same,Cl,time 14 day,103.4 meq/L
same,DBIL,time 14 day,0.1 mg/dL
same,GLC,time 14 day,203.8 mg/dL
same,IP,time 14 day,6.5 mg/dL
same,K,time 14 day,3.6 meq/L
same,LDH,time 14 day,196 IU/L
same,Na,time 14 day,141.4 meq/L
same,PL,time 14 day,153.6 mg/dL
same,RALB,time 14 day,3.5 g/dL
same,TBIL,time 14 day,0.2 mg/dL
same,TC,time 14 day,70.6 mg/dL
same,TG,time 14 day,133.4 mg/dL
same,TP,time 14 day,5.8 g/dL
same,gamma-GTP,time 14 day,1.2 IU/L
same,A/G,time 28 day,1.3
same,ALP,time 28 day,678.2 IU/L
same,ALT,time 28 day,38.8 IU/L
same,AST,time 28 day,65.8 IU/L
same,BUN,time 28 day,18 mg/dL
same,CRE,time 28 day,0.5 mg/dL
same,Ca,time 28 day,10.5 mg/dL
same,Cl,time 28 day,102.8 meq/L
same,DBIL,time 28 day,0.1 mg/dL
same,GLC,time 28 day,215 mg/dL
same,IP,time 28 day,6 mg/dL
same,K,time 28 day,3.6 meq/L
same,LDH,time 28 day,185.6 IU/L
same,Na,time 28 day,141.4 meq/L
same,PL,time 28 day,154 mg/dL
same,RALB,time 28 day,3.6 g/dL
same,TBIL,time 28 day,0.2 mg/dL
same,TC,time 28 day,71.6 mg/dL
same,TG,time 28 day,129.8 mg/dL
same,TP,time 28 day,6.3 g/dL
same,gamma-GTP,time 28 day,0.6 IU/L
